In the data set the test system is generalized anxiety and/or post-traumatic stress disorder (PTSD). As to the kind of experiment: Inhaled dry powder given to subjects for generalized anxiety and/or PTSD. The format is in vivo, human. To be noted: encapsulated by HPMCAS, inhaler. The protocol: Three male subjects and one subject were administered doses of 5 mg, 10 mg, and 15 mg of psilocybin. Each individual dosage level was administered about three weeks apart for the treatment of generalized anxiety and/or post-traumatic stress disorder (PTSD). In a separate experiment, the subjects were administered doses of 1 mg, 5 mg, and 10 mg of 4-AoC-DMT (O-Acetylpsilocin). Each individual dosage level was administered about three weeks apart for the treatment of generalized anxiety and/or post-traumatic stress disorder (PTSD). The dry powder pharmaceutical compositions comprised psilocybin or 4-AoC-DMT encapsulated by HPMCAS using the methods described herein (e.g., spay drying). The encapsulated dry powder was administered with an inhaler.

Data on two compounds can be found in patent US20260240763A1, “Inhalable Serotonin Receptor Agonist Formulations” (Pinata Holdings Inc., priority 2022, published 2026).

On to `CC(=O)Oc1cccc2[nH]cc(CCN(C)C)c12` [4-AoC-DMT, 4-Acetoxy-N,N-dimethyltryptamine], for which the adverse effects noted entry runs as follows: (4-AoC-DMT 1 mg and 5 mg, four subjects) “No adverse effects”; (4-AoC-DMT 10 mg, indicated by 3 male patients and 1 patient) “too much”. In addition, the “effect on anxiety in the subjects” value (doses of 1 mg and 5 mg of 4-AoC-DMT, each about three weeks apart, three male subjects and one subject) is on record as “reduced anxiety”.

For `CN(C)CCc1c[nH]c2cccc(OP(=O)(O)O)c12` [psilocybin, 4-phosphoryloxy-N,N-dimethyltryptamine], where the note is “psilocybin 5 mg, 10 mg and 15 mg, four subjects”, the adverse effects noted result is reported as “No adverse effects”.
